# Literature values in US20070049498A1, “Agricultural compositions which enhance performance of herbicides” (priority 2005, published 2007).
# Details: glyphosate in acid form
compound,measurement,value
"O=C(O)CNCP(=O)(O)O [glyphosate, N-phosphonomethylglycine]",water solubility,about 1.2%
